Experiments:
Format in all cases: biochemical
[1] = biological target: T1, human Tie2 (Homo sapiens, UniProt Q02763); assay: Tie2 assay of PLC phosphorylation (FlashPlate); settings: read-out: IC 50 TIE2
T1 construct: amino acids of the intracellular domain 776-1124; made in house
Description: The coding sequence of human Tie2, corresponding to the amino acids of the intracellular domain 776-1124, was generated by PCR, using the cDNA isolated from human placenta as a model. This sequence was introduced into a baculovirus expression vector pFastBacGT in the form of a GST fusion protein.
The inhibitory effect of the molecules is determined in an assay of PLC phosphorylation by Tie2 in the presence of GST-Tie2 purified to approximately 80% homogeneity. The substrate is composed of the SH2-SH3 fragments of PLC expressed in the form of a GST fusion protein.
The kinase activity of Tie2 is measured in a 20 mM MOPS buffer, pH 7.2, containing 10 mM MgCl2, 10 mM MnCl2, 1 mM DTT, 10 mM of glycerol-phosphate. In a 96-well FlashPlate plate, kept on ice, a reaction mixture is deposited which is composed of 70 μl of kinase buffer containing 100 ng of GST-Tie2 enzyme per well. Subsequently 10 μl of the test molecule diluted to a concentration of 10% maximum in DMvSO are added. For a given concentration, each measurement is carried out in quadruplicate. The reaction is initiated by adding 20 μl of solution containing 2 μg of GST-PLC, 2 μM of cold ATP and 1 μCi of ^33P[ATP]. After 1 hour of incubation at 37° C., the reaction is terminated by adding 1 volume (100 μl) of 200 mM EDTA. Following removal of the incubation buffer, the wells are washed three times with 300 μl of PBS. The radioactivity is measured on a Wallac MicroBeta 1450.
The inhibition of Tie2 activity is calculated and expressed as a percentage inhibition relative to the control activity determined in the absence of compound.

[2] = biological target: T2, human KDR enzyme (Homo sapiens, UniProt P35968); assay: KDR substrate phosphorylation assay (scintillation, 96-well plate)
T2 construct: The cytoplasmic domain of the human KDR enzyme was cloned in the form of a GST fusion; GST; made in house; host or cells: SF21 insect cells (baculovirus, pFastBac)
Description: The inhibitory effect of the compounds is determined in an assay of substrate phosphorylation by the KDR enzyme in vitro using a scintillation technique (96-well plate, NEN).
The cytoplasmic domain of the human KDR enzyme was cloned in the form of a GST fusion into the baculovirus expression vector pFastBac. The protein was expressed in SF21 cells and purified to approximately 60% homogeneity.
The KDR kinase activity is measured in 20 mM MOPS, 10 mM MgCl2, 10 mM MnCl2, 1 mM DTT, 2.5 mM EGTA, 10 mM β-glycerophosphate, pH=7.2, in the presence of 10 mM MgCl2, 100 μM Na3VO4, 1 mM NaF. 10 μl of the compound are added to 70 μl of kinase buffer, containing 100 ng of KDR enzyme at 4° C. The reaction is triggered by adding 20 μl of solution containing 2 μg of substrate (SH2-SH3 fragment of PLCγ expressed in the form of a GST fusion protein), 2 μCi γ^33P[ATP] and 2 μM cold ATP. After 1 hour of incubation at 37° C., the reaction is stopped by adding 1 volume (100 μl) of 200 mM EDTA. The incubation buffer is withdrawn and the wells are washed three times with 300 μl of PBS. The radioactivity is measured in each well using a Top Count NXT radioactivity counter (Packard).
The background noise is determined by measuring the radioactivity in four different wells containing the radioactive ATP and the substrate alone.
A control for total activity is measured in four different wells containing all of the reagents (γ^33P-[ATP], KDR and PLCγ substrate), but in the absence of compound.
The inhibition of KDR activity with the compound of the invention is expressed in percentage inhibition of the control activity determined in the absence of compound.
The compound SU5614 (Calbiochem) (1 μM) is included in each plate as an inhibition control.

[3] = biological target: T3, Aurora2 (Homo sapiens, UniProt O14965); assay: Aurora2 enzyme assay, NuMA substrate phosphorylation (Flashplate); settings: read-out: IC 50 Aurora2
T3 construct: Aurora 2: whole recombinant protein comprising an N-terminal histidine tail; His tag (histidine tail) (N); made in house; host or cells: E. coli
T3 sequence (O14965 1-403): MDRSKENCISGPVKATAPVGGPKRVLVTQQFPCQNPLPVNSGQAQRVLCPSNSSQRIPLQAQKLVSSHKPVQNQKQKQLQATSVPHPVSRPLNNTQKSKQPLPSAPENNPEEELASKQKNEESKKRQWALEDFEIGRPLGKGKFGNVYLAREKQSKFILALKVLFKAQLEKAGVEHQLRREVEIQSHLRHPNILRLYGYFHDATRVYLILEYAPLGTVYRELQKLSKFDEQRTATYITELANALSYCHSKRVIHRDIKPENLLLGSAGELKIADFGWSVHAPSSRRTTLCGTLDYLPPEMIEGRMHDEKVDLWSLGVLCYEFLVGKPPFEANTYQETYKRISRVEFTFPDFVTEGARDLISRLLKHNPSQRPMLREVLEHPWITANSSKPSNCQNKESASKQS
Description: The inhibitory effect of compounds with respect to the kinases Aurora1 and Aurora2 is determined by an enzyme assay employing radioactivity detection.
The kinase activity of Aurora 1 and Aurora 2 is evaluated by the phosphorylation of the substrate Numa-histidine in the presence of radiolabeled ATP ([^33P]ATP), using 96-well Flashplate plates in which nickel chelate is fixed to the surface of the microplate. The amount of ^33P phosphate incorporated in the NuMA substrate is proportional to the activity of the enzyme Aurora1 or Aurora2.
The proteins are produced in the protein production laboratory of the SanofiAventis group.
Aurora 2: whole recombinant protein comprising an N-terminal histidine tail, expressed in E. coli and purified to more than 82%.
NuMA (nuclear protein that associates with the mitotic apparatus) fragment of 424 amino acids, expressed in E. coli, whose N-terminal end has been labeled with histidine and used as a substrate for the two Aurora enzymes.
The microplates used are 96-well Flash-Plate plates with nickel chelate (Perkin Elmer, model SMP107).
The products for evaluation are incubated in a reaction volume of 100 μL per well in the presence of 10 nM of Aurora 1 or Aurora 2, 500 nM of NuMA substrate in a buffer composed of 50 mM of Tris/HCl (pH 7.5), 50 mM NaCl, 5 mM MgCl2 (Aurora-B) or 10 mM MgCl2 (Aurora-A) and 1 mM of DTT, at 37° C.
In each well, 80 μL of the enzyme/substrate incubation buffer are distributed, followed by 10 μL of the product to be evaluated, in variable concentrations. The reaction is initiated by adding 1 μM of final ATP containing 0.2 μCi of [^33P]ATP (10 μL). After 30 minutes of incubation, the reaction is terminated by simply removing the reaction buffer and each well is washed twice with 300 μl of the Tris/HCl buffer. The radioactivity is then measured in each well by means of a scintillation apparatus, Packard, Top count model.
The control enzyme activity of Aurora is expressed by the number of counts per minute obtained within 30 minutes, after deduction of the background noise (reaction mixture not containing the enzyme). The evaluation of the various test products is expressed in percentage inhibition of the Aurora activity relative to the control.

T1 sequence (Q02763 776-1124): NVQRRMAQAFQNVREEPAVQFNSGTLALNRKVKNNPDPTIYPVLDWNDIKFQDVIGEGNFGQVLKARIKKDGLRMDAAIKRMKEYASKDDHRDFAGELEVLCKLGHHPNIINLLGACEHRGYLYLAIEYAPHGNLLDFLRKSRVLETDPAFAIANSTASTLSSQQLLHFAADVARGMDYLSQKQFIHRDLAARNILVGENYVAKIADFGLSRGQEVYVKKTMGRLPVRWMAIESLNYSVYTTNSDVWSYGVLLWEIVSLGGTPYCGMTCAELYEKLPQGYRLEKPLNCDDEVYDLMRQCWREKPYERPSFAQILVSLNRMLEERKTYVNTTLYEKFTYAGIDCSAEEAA
T2 sequence (P35968 786-1356 limits assumed): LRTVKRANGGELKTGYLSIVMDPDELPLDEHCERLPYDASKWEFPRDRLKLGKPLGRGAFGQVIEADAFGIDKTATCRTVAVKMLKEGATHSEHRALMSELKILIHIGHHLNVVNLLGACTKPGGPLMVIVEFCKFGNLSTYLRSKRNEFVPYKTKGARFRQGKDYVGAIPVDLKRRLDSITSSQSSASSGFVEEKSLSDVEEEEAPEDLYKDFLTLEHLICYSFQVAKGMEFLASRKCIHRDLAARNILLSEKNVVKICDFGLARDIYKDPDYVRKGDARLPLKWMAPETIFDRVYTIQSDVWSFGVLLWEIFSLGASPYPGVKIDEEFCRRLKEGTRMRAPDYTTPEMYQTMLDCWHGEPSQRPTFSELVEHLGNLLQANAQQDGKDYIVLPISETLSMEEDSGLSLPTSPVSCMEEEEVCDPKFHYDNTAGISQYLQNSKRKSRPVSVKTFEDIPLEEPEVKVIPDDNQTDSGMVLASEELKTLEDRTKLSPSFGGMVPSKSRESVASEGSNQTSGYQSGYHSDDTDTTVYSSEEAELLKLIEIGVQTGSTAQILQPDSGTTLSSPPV

IC50 [1] [µM] | IC50 [2] [µM] | IC50 [3] [µM] | Structure (SMILES)
0.017 | 0.011 | 0.094 | Cc1ccc(-n2nc(C(C)(C)C)cc2NC(=O)Nc2ccc(-c3ccc4c(N)n[nH]c4c3F)cc2)cc1 [Example 25, 1-[4-(3-Amino-7-fluoro-1H-indazol-6-yl)phenyl]-3-(5-tert-butyl-2-p-tolyl-2H-pyrazol-3-yl)urea]
0.626 | 1.05 | 3.38 | O=C(Nc1ccc(-c2ccc3c(NC(=O)C4CCCN4)n[nH]c3c2F)cc1)Nc1cc(C(F)(F)F)ccc1F [Example 26, 1-(4-{7-Fluoro-3-[(L-pyrrolidin-2-yl)carbonylamino]-1H-indazol-6-yl}phenyl)-3-(2-fluoro-5-trifluoromethylphenyl)urea]
0.143 | 0.079 | 0.335 | CC(=O)Nc1n[nH]c2c(F)c(-c3ccc(NC(=O)Nc4cc(C(F)(F)F)ccc4F)cc3)ccc12 [Example 27, 1-(4-{7-Fluoro-3-acetylamino-1H-indazol-6-yl}phenyl)-3-(2-fluoro-5-trifluoromethylphenyl)urea]
0.176 | 0.164 | 0.52 | O=CNc1n[nH]c2c(F)c(-c3ccc(NC(=O)Nc4cc(C(F)(F)F)ccc4F)cc3)ccc12 [Example 28, 1-(4-(7-Fluoro-3-formylamino-1H-indazol-6-yl}phenyl)-3-(2-fluoro-5-tri-fluoromethylphenyl)urea]

The next lines start with the molecule.

Structure (SMILES) | IC50 [1] [µM] | IC50 [2] [µM] | IC50 [3] [µM]
CC(C)(C)c1cc(NC(=O)Nc2ccc(-c3ccc4c(N)n[nH]c4c3F)cc2)no1 [Example 21, 1-[4-(3-Amino-7-fluoro-1H-indazol-6-yl)phenyl]-3-(5-tert-butylisoxazol-3-yl)urea] | 0.174 | 0.085 | 0.068
Nc1n[nH]c2c(F)c(-c3ccc(NC(=O)Nc4ccccc4F)cc3)ccc12 [Example 22, 1-[4-(3-Amino-7-fluoro-1H-indazol-6-yl)phenyl]-3-(2-fluorophenyl)urea] | 5.85 | 1.94 | 0.143
Cc1cc(-c2ccc3c(NC(=O)c4ccsc4)n[nH]c3c2F)ccc1NC(=O)Nc1cc(C(F)(F)F)ccc1F [Example 23, 1-(4-{7-Fluoro-3-[(thiophen-3-yl)carbonylamino]-1H-indazol-6-yl}-2-methylphenyl)-3-(2-fluoro-5-trifluoromethylphenyl)urea] | 0.016 | 0.015 | 0.296
